Experimental data: patent US9040715B2 (priority 2008, dated 2015)
Where two headings read alike, the source gives them in different places.

How the values were obtained:
Assay type in all cases: cell-based
[1] = system: HCV replicon cell line APC103 (genomic H77, genotype la); assay: Anti-HCV activity, 3-day HCV replicon assay, blot hybridization of intracellular HCV RNA; details: for EC50: read-out: EC50 (μM ± SD); for EC90: 10-fold depression of intracellular HCV RNA
Description: (§1) The antiviral activity of Compounds I-8 and I-9 was assessed in a 3-day assay using the stably-expressing HCV replicon cell lines, AVA5 (sub-genomic CONI, genotype 1b) and APC103 (genomic H77, genotype la) maintained as sub -confluent cultures on 96-well plates. Antiviral activity was determined by blot hybridization analysis of intracellular HCV RNA (normalized to the level of cellular B-actin RNA in each culture sample). A 3-fold suppression of HCV RNA and less than 2-fold suppression of cellular B-actin RNA was used as the cutoff. Cytotoxicity was assessed by neutral red dye uptake after 3 days of treatment. Dose response inhibition of HCV was also determined (FIG. 6). The nucleoside analogue 2′C-methyl cytidine (2′CmeC) was used as an assay activity control. EC50, EC90 and CC50 values (+/− standard deviations [S.D.]) were calculated by linear regression analysis. EC50 and EC90 are drug concentrations at which a 2-fold, or a 10-fold depression of intracellular HBV DNA or HCV RNA (relative to the average levels in untreated cultures), respectively, was observed. CC50 is the drug concentration at which a 2-fold lower level of neutral red dye uptake (relative to the average levels in untreated cultures) was observed.

[2] = system: HCV replicon cell line AVA5 (sub-genomic CONI, genotype 1b); assay: as above; details: for EC50: 2-fold depression of intracellular HCV RNA
Description: as §1

[3] = system: APC103 cells; assay: Cytotoxicity by neutral red dye uptake after 3 days of treatment
Description: as §1

[4] = system: AVA5 cells; assay: as above
Description: as §1

[5] = as above; details: human
Description: as §1

[6] = system: HCV replication; assay: Effect of combination treatments on HCV replication (CalcuSyn analysis); design: key to Type of Interaction: S, synergistic; details: for EC50 / EC90: Hepatitis C virus; for EC50: read-out: Compound I-9 EC50; for EC90: read-out: Compound I-9 EC90
Source text: Compound I-9 was utilized in combination treatments with interferon (with and without RBV), and several representative STAT—C agents including 2′CmeC (nucleoside analogue), HCV-796 (non-nucleoside polymerase inhibitor), and VX-950 (protease inhibitor) (Table 13). For these studies, the compounds were mixed at equipotent (not necessarily equimolar) concentrations based on the monotherapy EC90 values. For example, 2′CmeC and Compound I-9 were mixed at equal molar concentrations, while 10-fold more Compound I-9 was used relative to VX-950 in that combination. The mixtures were then serially diluted for dose response analysis keeping the molar ratios constant. Corresponding monotherapies were also included. # Ribavirin (RBV) was held at a constant concentration of 30 uM for all serial dilutions of this combination. The overall type of interaction as determined by analysis with CalcuSyn (Biosoft, Inc.; Cambridge, UK) for each combination is indicated next to the corresponding EC50 and EC90 values in Table 13.
Analysis of combination therapies was performed using Calcusyn™ software (Biosoft, Inc.; Cambridge, UK). Two types of evaluations were performed (see FIG. 7). The top panels of FIG. 5 present CI-Fa (Combination Index—Fraction (of virus) affected) plots). For these plots, a combination index [CI] greater than 1.0 indicates antagonism and a CI less than 1.0 indicates synergism. Evaluations of synergy, additivity (summation), or antagonism at different levels of virus inhibition (e.g. […] (Fa=0.5) to 99% (Fa=0.99)) were performed and are provided by the plotted lines and points. Dotted lines denoting 1.96 standard deviations for significance evaluations can be added but are not included in this example for clarity of presentation. The bottom panels present conservative isobolograms. […] Three lines radiating out from the axes denote the expected (e.g., additive) EDC50, EDC75, and EDC90 values for drug combinations as calculated from the monotherapies. ED50, ED75, and ED90 values for the combinations that plot to the left (e.g., less than) of the corresponding lines indicate synergy, and values plotting to the right (e.g., greater than) of the corresponding lines indicate antagonism.

[7] = Hepatitis C virus, Ava5, read-out: EC90 (μM ± SD)
[8] = combination with 2′CmeC, molar ratio 1:1
[9] = combination with HCV-796, molar ratio 1:100
[10] = combination with IFN + 30 μM RBV (RBV held constant), molar ratio 1:1
[11] = combination with IFN, molar ratio 1:1
[12] = combination with VX-950, molar ratio 1:10

SMILES: C[C@@]1(O)[C@H](O)[C@@H](CO)O[C@H]1n1ccc(N)nc1=O [2′CmeC, 2′C-methyl cytidine, reference compound]
- SI (CC50/EC50) ([1]; APC103): >136
- EC50 ([1]; APC103, 2-fold depression of intracellular HCV RNA): 5.8 ± 0.4 µM
- EC90 ([1]; APC103): 6.4 ± 0.6 µM
- SI (CC50/EC50) ([2]; AVA5): >150
- EC50 ([2]; AVA5): 2 ± 0.1 µM
- EC90 ([2]; AVA5, 10-fold depression of intracellular HCV RNA, read-out: EC90 (μM ± SD)): 2.2 ± 0.2 µM
- CC50 [3]: > 300 µM
- CC50 [4]: > 300 µM

SMILES: O=C(Cn1sc2ccccc2c1=O)Nc1cccc(Oc2ccccc2)c1 [Compound I-8]
- SI (CC50/EC50) ([1]; APC103): >18
- EC50 ([1]; Hepatitis C virus): 19 ± 2.3 µM
- EC90 ([1]; Hepatitis C virus, APC103): 23 ± 1.8 µM
- SI (CC50/EC50) ([2]; AVA5): >17
- EC90 [2, 7]: 5.6 ± 0.7 µM
- EC50 ([2]; Hepatitis C virus, AVA5): 5.8 ± 3.7 µM
- CC50 at 3 days ([5]; APC103): > 100 µM
- CC50 at 3 days ([5]; AVA5): > 100 µM

SMILES: CC(C(=O)Nc1cccc(Oc2ccccc2)c1)n1sc2ccccc2c1=O (stereo not drawn) [Compound I-9]
- SI (CC50/EC50) ([1]; APC103): >35
- EC50 ([1]; Hepatitis C virus): 8.5 ± 0.6 µM
- EC90 ([1]; Hepatitis C virus, APC103): 9 ± 1 µM
- SI (CC50/EC50) ([2]; AVA5): >42
- EC90 [2, 7]: 2.8 ± 0.3 µM
- EC50 ([2]; Hepatitis C virus, AVA5): 2.4 ± 0.2 µM
- CC50 at 3 days ([5]; APC103): > 100 µM
- CC50 at 3 days ([5]; AVA5): > 100 µM
- EC50 ([6]; None (monotherapy)): 2600 ± 200 nM
- EC90 ([6]; None (monotherapy)): 9100 ± 500 nM
- EC50 [6, 8]: 700 ± 100 nM
- EC90 [6, 8]: 1800 ± 200 nM
- EC50 [6, 9]: 100 ± 10 nM
- EC90 [6, 9]: 400 ± 30 nM
- EC50 [6, 10]: 200 ± 30 nM
- EC90 [6, 10]: 700 ± 100 nM
- EC50 [6, 11]: 300 ± 30 nM
- EC90 [6, 11]: 1000 ± 100 nM
- EC50 [6, 12]: 300 ± 20 nM
- EC90 [6, 12]: 700 ± 100 nM
- Type of Interaction [6, 8]: S
- Type of Interaction [6, 9]: S
- Type of Interaction [6, 10]: S
- Type of Interaction [6, 11]: S
- Type of Interaction [6, 12]: S
- Interaction in combination treatments ([6]; with interferon, ribavirin, and the STAT-C agents): interacted favorably
